Experimental data taken from patent publication US4687780A, “Anti-tumor compounds of platinum” (Johnson Matthey PLC, priority 1985, dated 1987).

Tests used:
ADJ/PC6A plasmacytoma = assay: activity against ADJ/PC6A plasmacytoma grown subcutaneously in mice, oral administration; format: in vivo, female Balb C^- mice; details: for ED90 (dose level causing a 90% reduction in tumor size): suspension in arachis oil
Experimental: (§1) Additionally, the same compounds were tested for activity against ADJ/PC6A plasmacytoma grown subcutaneously in female Balb C^- mice following oral administration as a suspension in arachis oil. Dosage levels were at 100μ mole/kg of body weight for pharmacokinetic tests to establish the extent of absorption into the systemic circulation.
(§2) Results are presented in terms of concentration (μg/ml) of Pt in the blood and cumulative percentage dose in urine, cage wash and faeces, all after specified time intervals. Results for anti-tumor effect are expressed as LD50 (mg/kg), ED90 (mg/kg), and TI (LD50 /ED90). The figures for LD50 (the dose level causing 50% deaths) and ED90 (the dose level causing a 90% reduction in tumor size) are determined by administering dosage levels ranging from lethal to non-tumor inhibitory. The therapeutic index (TI) is an indication of the selectivity of the compound as an anti-tumor agent.

L1210 leukaemia = assay: anti-tumor activity against L1210 leukaemia in CDF1 male mice, i.p. single dose Day 1; format: in vivo; design: median survival time (MST): unit not given here; details: for % T/C (MST/MST control×100) / median survival time (MST): single dose Day 1; for average weight change (AWC): by Day 5
Experimental: (§3) Compounds according to the invention were screened for anti-tumor activity against L1210 leukaemia and B16 melanoma in mice. The compounds were administered intraperitoneally as solutions or suspensions in water and "Tween" 80 as carrier to CDF1 male mice (L1210) and BDF1 female mice (B16). […] For each dose level, results are quoted in terms of median survival time (MST); the comparative effect (i.e. MST/MST control×100); average weight change (AWC) by Day 5 (L1210) or Day 6 (B16); and the number of mice alive (MA) at Day 5 (L1210) or Day 10 (B16).
(§4) Results were as follows for the compounds as prepared in Examples 3 and 4.
1. L1210 (1×10^6 cells): treatment consisted of single dose on Day 1.

[1] = LD50 (dose level causing 50% deaths), oral administration; format: in vivo, female Balb C^- mice; details: suspension in arachis oil
Experimental: as §1, §2

[2] = pharmacokinetic tests: Pt in blood and cumulative percentage dose in urine, cage wash and faeces after oral administration; format: in vivo, female Balb C^- mice
Experimental: as §1, §2

B16 melanoma = assay: anti-tumor activity against B16 melanoma in BDF1 female mice, i.p. 9 daily doses; format: in vivo; design: median survival time (MST): unit not given here; details: for % T/C (MST/MST control×100) / median survival time (MST): 9 daily doses from Day 1; for average weight change (AWC): by Day 6
Experimental: as §3, §4
2. B16 (0.5 ml 10% BREI): treatment consisted of 9 daily doses beginning at Day 1.

## [NH2][Pt]1([NH]C2CCCC2)[O]C(=O)C2(CCC2)C(=O)[O]1 [Ex. 4, ammine(cyclobutane-1,1-dicarboxylato)cyclopentylamine platinum(II)]
ADJ/PC6A plasmacytoma
  therapeutic index TI (LD50/ED90): 32
  ED90 (dose level causing a 90% reduction in tumor size): 50 mg/kg
L1210 leukaemia; 40 mg/kg i.p.
  % T/C (MST/MST control×100): 154%
  median survival time (MST): 10.0
L1210 leukaemia; 80 mg/kg i.p.
  % T/C (MST/MST control×100): 177%
  median survival time (MST): 11.5
L1210 leukaemia; 120 mg/kg i.p.
  % T/C (MST/MST control×100): 177%
  median survival time (MST): 11.5
L1210 leukaemia; 160 mg/kg i.p.
  % T/C (MST/MST control×100): 192%
  median survival time (MST): 12.5
L1210 leukaemia; mouse, in vivo
  number of mice alive (MA): 6/6
[1]
  LD50 (dose level causing 50% deaths): 1600 mg/kg
[2]; mouse, in vivo, po, 1 h
  Blood conc. of Pt: 0.88 ± 0.05 μg/ml of whole blood
[2]; mouse, in vivo, po, 2 h
  Blood conc. of Pt: 1.21 ± 0.16 μg/ml of whole blood
[2]; mouse, in vivo, po, 4 h
  Blood conc. of Pt: 0.82 ± 0.12 μg/ml of whole blood
[2]; mouse, in vivo, po, 7 h
  Blood conc. of Pt: 0.32 ± 0.05 μg/ml of whole blood
[2]; mouse, in vivo, po, 24 h
  Blood conc. of Pt: 0.20 ± 0.03 μg/ml of whole blood
  Cage wash (cumulative %): 7.1 ± 0.7%
  Faeces dose (cumulative %): 57.6 ± 3.5%
  Urine dose (cumulative %): 16.8 ± 2.4%
[2]; mouse, in vivo, po, 48 h
  Blood conc. of Pt: 0.20 ± 0.03 μg/ml of whole blood
  Cage wash (cumulative %): 8.0 ± 0.9%
  Faeces dose (cumulative %): 59.8 ± 3.6%
  Urine dose (cumulative %): 18.2 ± 2.4%
B16 melanoma; 8 mg/kg
  % T/C (MST/MST control×100): 115%
  median survival time (MST): 22.5
B16 melanoma; 13 mg/kg i.p.
  % T/C (MST/MST control×100): 133%
  median survival time (MST): 26.0
B16 melanoma; 20 mg/kg i.p.
  % T/C (MST/MST control×100): 149%
  median survival time (MST): 29.0
B16 melanoma; 30 mg/kg i.p.
  % T/C (MST/MST control×100): 164%
  median survival time (MST): 32.0
B16 melanoma; mouse, in vivo
  number of mice alive (MA): 10/10

## N.NC1CCCCC1.O=C([O-])C1(C(=O)[O-])CCC1.[Pt+2] [Ex. 3, ammine(cyclobutane-1,1-dicarboxylato)cyclohexylamine platinum(II)]
ADJ/PC6A plasmacytoma
  therapeutic index TI (LD50/ED90): 22
  ED90 (dose level causing a 90% reduction in tumor size): 73 mg/kg
L1210 leukaemia; 40 mg/kg i.p.
  % T/C (MST/MST control×100): 154%
  median survival time (MST): 10.0
L1210 leukaemia; 40 mg/kg i.p., single dose, at Day 5
  number of mice alive (MA): 5/5
L1210 leukaemia; 40 mg/kg i.p., single dose
  average weight change (AWC): -0.1 g
L1210 leukaemia; 80 mg/kg i.p.
  % T/C (MST/MST control×100): 185%
  median survival time (MST): 12.0
L1210 leukaemia; 80 mg/kg i.p., single dose, at Day 5
  number of mice alive (MA): 6/6
L1210 leukaemia; 80 mg/kg i.p., single dose
  average weight change (AWC): -2.4 g
L1210 leukaemia; 120 mg/kg i.p.
  % T/C (MST/MST control×100): 185%
  median survival time (MST): 12.0
L1210 leukaemia; 120 mg/kg i.p., single dose, at Day 5
  number of mice alive (MA): 6/6
L1210 leukaemia; 120 mg/kg i.p., single dose
  average weight change (AWC): -0.6 g
L1210 leukaemia; 160 mg/kg i.p.
  % T/C (MST/MST control×100): 231%
  median survival time (MST): 15.0
L1210 leukaemia; 160 mg/kg i.p., single dose, at Day 5
  number of mice alive (MA): 5/6
L1210 leukaemia; 160 mg/kg i.p., single dose
  average weight change (AWC): -4.5 g
[1]
  LD50 (dose level causing 50% deaths): 1600 mg/kg
[2]; 1 hr, oral, 100μ mole/kg, suspension in arachis oil
  Blood conc. of Pt: 0.62 ± 0.11 μg/ml of whole blood
[2]; 2 hrs, oral, 100μ mole/kg, suspension in arachis oil
  Blood conc. of Pt: 0.80 ± 0.08 μg/ml of whole blood
[2]; 4 hrs, oral, 100μ mole/kg, suspension in arachis oil
  Blood conc. of Pt: 0.64 ± 0.03 μg/ml of whole blood
[2]; 7 hrs, oral, 100μ mole/kg, suspension in arachis oil
  Blood conc. of Pt: 0.51 ± 0.09 μg/ml of whole blood
[2]; 24 hrs, oral, 100μ mole/kg
  Cage wash (cumulative %): 5.1 ± 1.2%
  Faeces dose (cumulative %): 57.0 ± 14.1%
  Urine dose (cumulative %): 11.4 ± 2.1%
[2]; 24 hrs, oral, 100μ mole/kg, suspension in arachis oil
  Blood conc. of Pt: 0.16 ± 0.05 μg/ml of whole blood
[2]; 48 hrs, oral, 100μ mole/kg
  Cage wash (cumulative %): 6.4 ± 1.8%
  Faeces dose (cumulative %): 62.1 ± 13.7%
  Urine dose (cumulative %): 12.8 ± 1.8%
[2]; 48 hrs, oral, 100μ mole/kg, suspension in arachis oil
  Blood conc. of Pt: 0.16 ± 0.03 μg/ml of whole blood
B16 melanoma; 6 mg/kg i.p.
  % T/C (MST/MST control×100): 136%
  median survival time (MST): 26.5
B16 melanoma; 6 mg/kg i.p., 9 daily doses, at Day 10
  number of mice alive (MA): 10/10
B16 melanoma; 6 mg/kg i.p., 9 daily doses
  average weight change (AWC): -0.3 g
B16 melanoma; 12 mg/kg i.p.
  % T/C (MST/MST control×100): 149%
  median survival time (MST): 29.0
B16 melanoma; 12 mg/kg i.p., 9 daily doses, at Day 10
  number of mice alive (MA): 10/10
B16 melanoma; 12 mg/kg i.p., 9 daily doses
  average weight change (AWC): -1.0 g
B16 melanoma; 18 mg/kg i.p.
  % T/C (MST/MST control×100): 174%
  median survival time (MST): 34.0
B16 melanoma; 18 mg/kg i.p., 9 daily doses, at Day 10
  number of mice alive (MA): 10/10
B16 melanoma; 18 mg/kg i.p., 9 daily doses
  average weight change (AWC): -1.6 g
B16 melanoma; 24 mg/kg i.p.
  % T/C (MST/MST control×100): 177%
  median survival time (MST): 34.5
B16 melanoma; 24 mg/kg i.p., 9 daily doses, at Day 10
  number of mice alive (MA): 10/10
B16 melanoma; 24 mg/kg i.p., 9 daily doses
  average weight change (AWC): -1.4 g
